Experimental data as given in US12661345B2, “Compositions for the treatment of hypertension” (The George Institute for Global Health, priority 2017, dated 2026).

System: participants with migraine
Test: Safety: serious adverse events and adverse events of special interest in the 3×3 factorial trial
[1] = Anytime between Week 0 to Week 12, % of participants
[2] = Anytime between Week 0 to Week 12, n/N participants
[3] = Randomization, % of participants
[4] = Randomization, n/N participants

CCC(C)(C)C(=O)O[C@H]1C[C@@H](C)C=C2C=C[C@H](C)[C@H](CC[C@@H]3C[C@@H](O)CC(=O)O3)[C@H]21 [Simvastatin, simvastatin]
0/9: Subjects with any serious adverse event (SAE) in 12 weeks (n/N) (12 weeks) | Any SAEs [2] | Bradycardia [2] | Falls [2] | Gout [2] | Myalgia [2] | Pedal edema [2] | Syncope [2] | Any SAEs since the last visit? [4] | Bradycardia [4] | Gastrointestinal complaints [4] | Gout [4] | Myalgia [4] | Pedal edema [4] | Skin rash/itching [4] | Syncope [4] | Any SAEs since the last visit? (Week 4, n/N participants) | Bradycardia (Week 4, n/N participants) | Falls (Week 4, n/N participants) | Gout (Week 4, n/N participants) | Muscle cramps (Week 4, n/N participants) | Myalgia (Week 4, n/N participants) | Nightmares (Week 4, n/N participants) | Pedal edema (Week 4, n/N participants) | Skin rash/itching (Week 4, n/N participants) | Syncope (Week 4, n/N participants)
(100.0%): Headache [1] | Headache [3] | Headache (Week 4, % of participants)
(11.1%): Flushing [1] | Muscle cramps [1] | Nightmares [1] | Skin rash/itching [1] | Falls [3] | Nightmares [3] | Flushing (Week 4, % of participants) | Gastrointestinal complaints (Week 4, % of participants) | Feeling faint/dizziness (Week 8, % of participants) | Flushing (Week 8, % of participants) | Gastrointestinal complaints (Week 8, % of participants)
1/9: Flushing [2] | Muscle cramps [2] | Nightmares [2] | Skin rash/itching [2] | Falls [4] | Nightmares [4] | Flushing (Week 4, n/N participants) | Gastrointestinal complaints (Week 4, n/N participants)
(88.9%): Headache (Week 8, % of participants)
(0.0%): Any SAEs [1] | Bradycardia [1] | Falls [1] | Gout [1] | Myalgia [1] | Pedal edema [1] | Syncope [1] | Any SAEs since the last visit? [3] | Bradycardia [3] | Gastrointestinal complaints [3] | Gout [3] | Myalgia [3] | Pedal edema [3] | Skin rash/itching [3] | Syncope [3] | Any SAEs since the last visit? (Week 4, % of participants) | Bradycardia (Week 4, % of participants) | Falls (Week 4, % of participants) | Gout (Week 4, % of participants) | Muscle cramps (Week 4, % of participants) | Myalgia (Week 4, % of participants) | Nightmares (Week 4, % of participants) | Pedal edema (Week 4, % of participants) | Skin rash/itching (Week 4, % of participants) | Syncope (Week 4, % of participants) | Any SAEs since the last visit? (Week 8, % of participants) | Bradycardia (Week 8, % of participants) | Falls (Week 8, % of participants) | Gout (Week 8, % of participants)
9/9: Headache [2] | Headache [4] | Headache (Week 4, n/N participants)
(33.3%): Feeling faint/dizziness [1] | Flushing [3]
(22.2%): Gastrointestinal complaints [1] | Insomnia [1] | Feeling faint/dizziness [3] | Insomnia [3] | Muscle cramps [3] | Feeling faint/dizziness (Week 4, % of participants) | Insomnia (Week 4, % of participants)
3/9: Feeling faint/dizziness [2] | Flushing [4]
2/9: Gastrointestinal complaints [2] | Insomnia [2] | Feeling faint/dizziness [4] | Insomnia [4] | Muscle cramps [4] | Feeling faint/dizziness (Week 4, n/N participants) | Insomnia (Week 4, n/N participants)
0.0%: Subjects with any serious adverse event (SAE) in 12 weeks (percent) (12 weeks)
